Read-outs that look alike come from different tables or passages of the source.
Tests used:
[1] = system: mitochondrial membrane potential; type: cell-based, mouse; conditions: for ΔΨm (composite Z-score): normalized score vs mock-treated (DMSO) wells
reactive oxygen species = type: cell-based, mouse; conditions: for ROS (composite Z-score): normalized score vs mock-treated (DMSO) wells
OXPHOS gene expression = type: cell-based, mouse; conditions: for GE-HTS (composite Z-score): normalized score vs mock-treated (DMSO) wells
nuOXPHOS transcripts = type: cell-based, mouse; conditions: for nucOX (composite Z-score): normalized score vs mock-treated (DMSO) wells
mtOXPHOS transcripts = type: cell-based, mouse; conditions: for mitoOX (composite Z-score): normalized score vs mock-treated (DMSO) wells
cytochrome c = type: cell-based, mouse; conditions: for cyt c (composite Z-score): normalized score vs mock-treated (DMSO) wells
C2C12 myotubes = conditions: for Viability (composite Z-score): normalized score vs mock-treated (DMSO) wells
[2] = system: cellular dehydrogenase activity; conditions: for MTT (composite Z-score): normalized score vs mock-treated (DMSO) wells
[3] = composite Z-score vs mock-treated (DMSO) wells, concentration of each compound in μM
[4] = composite Z-score vs DMSO, Conc 20 μM
[5] = composite Z-score vs mock-treated (DMSO) wells, Conc 20 μM
[6] = normalized composite Z-score vs mock-treated (DMSO) wells, Conc 20 μM
[7] = Table 7, C2C12 myotubes, 48 h, composite Z-score
[8] = composite Z-score vs DMSO wells, Conc 20 μM
[9] = composite Z-score vs DMSO, Conc 10.62 μM

SMILES	ΔΨm [1, 4]	ROS (reactive oxygen species; [4])	GE-HTS (OXPHOS gene expression; [4])	nucOX (nuOXPHOS transcripts; [4])	mitoOX (mtOXPHOS transcripts; [4])	cyt c (cytochrome c; [4])	Viability (C2C12 myotubes; [4])	MTT [2, 4]	ΔΨm [1, 5]	ROS (reactive oxygen species; [5])	GE-HTS (OXPHOS gene expression; [5])	nucOX (nuOXPHOS transcripts; [5])	mitoOX (mtOXPHOS transcripts; [5])	cyt c (cytochrome c; [5])	Viability (C2C12 myotubes; [5])	MTT [2, 5]	further results
CN[C@H]1C[C@@H](N)[C@H](O)[C@@H](O[C@@H]2O[C@H](CO)[C@H](O)[C@@H]3OC4(O[C@H]23)O[C@H]([C@@H](N)CO)[C@H](O)[C@H](O)[C@H]4O)[C@@H]1O (stereo partly shown) [hygromycin B]	–	–	–	–	–	–	–	–	–	–	–	–	–	–	–	–	ΔΨm [1, 3]: −0.752; ROS (reactive oxygen species; [3]): 0.707; GE-HTS (OXPHOS gene expression; [3]): 0.558; nucOX (nuOXPHOS transcripts; [3]): 0.800; mitoOX (mtOXPHOS transcripts; [3]): −0.054; cyt c (cytochrome c; [3]): −0.478; Viability (C2C12 myotubes; [3]): −1.526; MTT [2, 3]: −2.041
COc1cc2c(cc1-c1coc3c4c(c(OC)cc3c1=O)OC(C)(C)C=C4)OCO2 [ichthynone, reference compound]	–	–	–	–	–	–	–	–	–	–	–	–	–	–	–	–	ΔΨm (composite Z-score) ([1]; Conc 20 μM): −0.325; ROS (composite Z-score) (reactive oxygen species; Conc 20 μM): 1.842; GE-HTS (composite Z-score) (OXPHOS gene expression; Conc 20 μM): −0.217; nucOX (composite Z-score) (nuOXPHOS transcripts; Conc 20 μM): −0.088; mitoOX (composite Z-score) (mtOXPHOS transcripts; Conc 20 μM): −0.466; cyt c (composite Z-score) (cytochrome c; Conc 20 μM): 0.001; Viability (composite Z-score) (C2C12 myotubes; Conc 20 μM): 0.234; MTT (composite Z-score) ([2]; Conc 20 μM): −0.681
O=[N+]([O-])NC1=NCCN1Cc1ccc(Cl)nc1 [imidacloprid]	−0.019	0.075	−0.294	−0.214	−0.368	0.607	−0.121	−0.893	–	–	–	–	–	–	–	–	–
COc1c(O)cc(O)cc1O [iretol]	–	–	–	–	–	–	–	–	−0.404	−0.393	−0.881	−0.583	−1.366	0.347	−0.552	−0.086	–
COc1cc(-c2coc3cc(O[C@@H]4O[C@H](CO)[C@@H](O)[C@H](O)[C@H]4O)c(OC)c(O)c3c2=O)cc(O)c1OC [iridin]	–	–	–	–	–	–	–	–	0.076	0.927	−0.755	−0.602	−0.990	−0.474	−0.441	−1.958	–
COc1cc(-c2coc3cc(OC)c(OC)c(OC)c3c2=O)cc(OC)c1OC [irigenin trimethyl ether]	–	–	–	–	–	–	–	–	−0.174	−0.074	−0.792	−0.790	−0.699	0.129	−0.060	−0.808	–
COc1cc(-c2coc3cc(OCc4ccccc4)c(OC)c(O)c3c2=O)cc(O)c1OC [irigenin, 7-benzyl ether]	–	–	–	–	–	–	–	–	0.948	1.548	−1.362	−1.386	−1.100	−0.617	−0.334	−1.179	–
COc1cc(-c2coc3cc(OCc4ccccc4)c(OC)c(O)c3c2=O)cc(OCc2ccccc2)c1OC [irigenin, dibenzyl ether]	0.178	0.088	−0.325	−0.163	−0.602	0.012	−1.724	−0.793	–	–	–	–	–	–	–	–	–
O=c1c(-c2cc(O)c(O)c(O)c2)coc2cc(O)c(O)c(O)c12 [irigenol]	−0.374	−1.001	−1.274	−0.838	−1.938	0.410	0.249	−0.810	–	–	–	–	–	–	–	–	–
CC(=O)Oc1cc(-c2coc3cc(OC(C)=O)c(OC(C)=O)c(OC(C)=O)c3c2=O)cc(OC(C)=O)c1OC(C)=O [iriginol hexaaceatate]	–	–	–	–	–	–	–	–	−0.204	0.815	0.928	0.859	0.938	−0.315	−0.291	−0.565	–
COc1cc2occc2c2oc(=O)ccc12 [isobergaptene]	–	–	–	–	–	–	–	–	−0.112	1.329	0.514	0.338	0.715	0.486	0.375	−1.025	–
COc1ccc2c(c1O)-c1c(OC)c(OC)cc3c1[C@H](C2)N(C)CC3 [isocorydine]	–	–	–	–	–	–	–	–	–	–	–	–	–	–	–	–	ΔΨm (composite Z-score) ([1]; Conc 11.72 μM): −1.052; ΔΨm (composite Z-score) ([1]; Conc 20 μM): −0.017; ROS (composite Z-score) (reactive oxygen species; Conc 11.72 μM): 1.214; ROS (composite Z-score) (reactive oxygen species; Conc 20 μM): −0.096; GE-HTS (composite Z-score) (OXPHOS gene expression; Conc 11.72 μM): 0.084; GE-HTS (composite Z-score) (OXPHOS gene expression; Conc 20 μM): −0.462; nucOX (composite Z-score) (nuOXPHOS transcripts; Conc 11.72 μM): 0.451; nucOX (composite Z-score) (nuOXPHOS transcripts; Conc 20 μM): −0.463; mitoOX (composite Z-score) (mtOXPHOS transcripts; Conc 11.72 μM): −0.664; mitoOX (composite Z-score) (mtOXPHOS transcripts; Conc 20 μM): −0.322; cyt c (composite Z-score) (cytochrome c; Conc 11.72 μM): 0.632; cyt c (composite Z-score) (cytochrome c; Conc 20 μM): 0.355; Viability (composite Z-score) (C2C12 myotubes; Conc 11.72 μM): −1.678; Viability (composite Z-score) (C2C12 myotubes; Conc 20 μM): 1.230; MTT (composite Z-score) ([2]; Conc 11.72 μM): −1.041; MTT (composite Z-score) ([2]; Conc 20 μM): −1.215
Cc1cc(=O)c2c(O)cc(O)c(C)c2o1 [isoeugenitol]	–	–	–	–	–	–	–	–	0.369	1.129	−0.717	−0.647	−0.680	0.662	0.377	−0.500	–
COc1ccc(-c2cc(=O)c3c(O)cc(O)c(-c4cc(-c5cc(=O)c6c(O)cc(O)cc6o5)ccc4OC)c3o2)cc1 [isoginkgetin]	–	–	–	–	–	–	–	–	–	–	–	–	–	–	–	–	ΔΨm [1, 6]: −4.387; ROS (reactive oxygen species; [6]): 1.106; GE-HTS (OXPHOS gene expression; [6]): −0.589; nucOX (nuOXPHOS transcripts; [6]): −0.318; mitoOX (mtOXPHOS transcripts; [6]): −1.087; cyt c (cytochrome c; [6]): −0.400; Viability (C2C12 myotubes; [6]): 2.182; MTT [2, 6]: −1.024
C=C1CCC2C(CC2(C)C)C(=O)CCC1O (stereo not shown) [isokobusone]	−0.283	−0.201	−0.848	−0.813	−0.713	0.480	−0.090	−0.507	–	–	–	–	–	–	–	–	–
COc1cc(O)ccc1C(C)=O [isopeonol]	0.271	−0.219	−0.109	0.134	−0.635	0.734	−1.180	−0.831	–	–	–	–	–	–	–	–	–
COc1cc2c(cc1OC)[C@@H]1C(=O)c3ccc4oc(C(C)C)cc4c3O[C@@H]1CO2 [isorotenone, reference compound]	–	–	–	–	–	–	–	–	–	–	–	–	–	–	–	–	ΔΨm [1, 6]: −1.329; ROS (reactive oxygen species; [6]): −0.782; GE-HTS (OXPHOS gene expression; [6]): −3.751; nucOXPHOS Z (nuOXPHOS transcripts; [7]): −3.02; nucOX (nuOXPHOS transcripts; [6]): −3.017; mito-OXPHOS Z (mtOXPHOS transcripts; [7]): −4.57; mitoOX (mtOXPHOS transcripts; [6]): −4.571; cyt c (cytochrome c; [6]): −3.397; Viability (C2C12 myotubes; [6]): −1.954; MTT [2, 6]: −4.373
CC=Cc1ccc2c(c1)OCO2 [isosafrole]	–	–	–	–	–	–	–	–	−1.060	0.397	−1.283	−0.860	−1.917	0.462	−0.798	−0.913	–
COc1ccc(-c2coc3c(OC)c(OC)cc(OC)c3c2=O)cc1 [isotectorigenin trimethyl ether]	–	–	–	–	–	–	–	–	0.413	0.359	0.437	0.426	0.418	0.640	0.976	−1.465	–
COc1cc(O)c2c(=O)c(-c3ccc(O)cc3)coc2c1OC [isotectorigenin, 7-methyl ether]	–	–	–	–	–	–	–	–	–	–	–	–	–	–	–	–	ΔΨm (composite Z-score) ([1]; Conc 20 μM): 0.574; ROS (composite Z-score) (reactive oxygen species; Conc 20 μM): 0.644; GE-HTS (composite Z-score) (OXPHOS gene expression; Conc 20 μM): −0.592; nucOX (composite Z-score) (nuOXPHOS transcripts; Conc 20 μM): −0.674; mitoOX (composite Z-score) (mtOXPHOS transcripts; Conc 20 μM): −0.360; cyt c (composite Z-score) (cytochrome c; Conc 20 μM): −0.477; Viability (composite Z-score) (C2C12 myotubes; Conc 20 μM): 0.633; MTT (composite Z-score) ([2]; Conc 20 μM): −1.606
Cc1cc(NC(=O)C2=C(O)c3ccccc3S(=O)(=O)N2C)no1 [isoxicam]	–	–	–	–	–	–	–	–	–	–	–	–	–	–	–	–	ΔΨm [1, 8]: −1.091; ROS (reactive oxygen species; [8]): 0.030; GE-HTS (OXPHOS gene expression; [8]): −0.423; nucOX (nuOXPHOS transcripts; [8]): −0.221; mitoOX (mtOXPHOS transcripts; [8]): −0.770; cyt c (cytochrome c): 0.177; cyt c (cytochrome c; [8]): −0.169; Viability (C2C12 myotubes; [8]): 0.010; MTT [2, 8]: −0.152
CC(COc1ccccc1)NC(C)C(O)c1ccc(O)cc1 (stereo not shown) [isoxsuprine]	−1.246	1.375	−0.050	−0.267	0.463	0.295	−0.141	−1.776	–	–	–	–	–	–	–	–	cyt c (cytochrome c; [3]): −0.148
O=C(O)/C=C/C=C/c1ccccc1 [juarezic acid]	−0.821	0.345	−0.147	0.108	−0.650	−0.113	−0.106	−0.449	–	–	–	–	–	–	–	–	–
NC[C@H]1O[C@H](O[C@H]2[C@H](O)[C@@H](O[C@H]3O[C@H](CO)[C@@H](O)[C@H](N)[C@H]3O)[C@H](N)C[C@@H]2N)[C@H](O)[C@@H](O)[C@@H]1O [kanamycin A]	–	–	–	–	–	–	–	–	–	–	–	–	–	–	–	–	ΔΨm [1, 3]: −0.812; ROS (reactive oxygen species; [3]): 1.383; GE-HTS (OXPHOS gene expression; [3]): −0.270; nucOX (nuOXPHOS transcripts; [3]): −0.218; mitoOX (mtOXPHOS transcripts; [3]): −0.323; cyt c (cytochrome c; [3]): −0.131; Viability (C2C12 myotubes; [3]): −1.015; MTT [2, 3]: −1.149
O=C(c1ccccc1)c1ccc2n1CCC2C(=O)O (stereo not shown) [ketorolac]	−0.825	0.939	−0.344	−0.468	−0.033	−0.707	−0.363	−0.053	–	–	–	–	–	–	–	–	ΔΨm [1, 9]: 0.136; ROS (reactive oxygen species; [9]): 0.482; GE-HTS (OXPHOS gene expression; [9]): 0.096; nucOX (nuOXPHOS transcripts; [9]): −0.072; mitoOX (mtOXPHOS transcripts; [9]): 0.412; cyt c (cytochrome c; [9]): 0.315; Viability (C2C12 myotubes; [9]): −0.773; MTT [2, 9]: −0.563
